Columns and labels:
[1] = test system: Foxp3-expressing regulatory T cells (Treg); assay: Production of Foxp3-expressing regulatory T cells from naive CD4 T cells (flow cytometry); format: cell-based, C57BL/6 mice; settings: 3 days
Protocol: The spleen of C57BL/6 mice (8 to 12 weeks old, female) was excised, pulverized by adding RPMI medium, and then passed through a 40 μm cell strainer (BD Falcon), thereby obtaining a single cell suspension. The single cell suspension was centrifuged (1200 rpm, 5 minutes), and after discarding the supernatant, 1 ml of ACK lysis buffer was added, followed by stirring for 1 minute and then washing the same with RPMI medium. After the single cell suspension was centrifuged, T-cells were separated using a Mouse CD4 Naive T cell Enrichment Kit (Invitrogen). The separated T-cells were prepared by resuspending them in RPMI-fetal bovine serum (FBS) 10%+2-ME (mercaptoethanol) medium at 1×10^6/ml. For T-cell activation, 5 μg/ml anti-CD3 (eBioscience™) was dispensed by 100 μl onto a 96-well plate, reacted in a cell incubator (37° C., 5% CO2 incubator) for 4 hours, and washed with phosphate buffered saline to prepare the plate. The T-cells were dispensed by 200 μl onto the prepared plate, and each well was treated with 2 μg/ml of anti-CD28 (eBioscience™), 2 ng/ml of TGFβ-1 (R&D systems), and 100 U/ml of IL-2. Each 5 μl of Compounds 6 and 9 at a concentration of 2.5 μM diluted in RPMI-fetal bovine serum 10%+2-ME medium was used for treatment, followed by culturing the same in a cell incubator (37° C., 5% CO2 incubator) for 3 days. […]
In order to confirm the expression of Foxp3 protein, the recovered cells were placed in a 5 ml FACS tube (BD Falcon) and washed with 1 ml of phosphate buffered saline. […] The cells were washed twice with the Permeabilization buffer, suspended in 0.3 ml of FACS buffer, and measured by flow cytometry.
The promotion effects of Compound 6 and Comparative Example 1 on the production of “FoxP3-expressing regulatory T cells,” which play an important role in maintaining immune tolerance, were compared (FIG. 24). […] After 3 days, in order to confirm the effects of production of the regulatory T cells, the cultured cells were recovered and Foxp3 protein expression was measured in the same manner as in FIG. 4.

[2] = test system: intestinal epithelial barrier integrity; assay: Mucosal healing with FITC-dextran in DSS-induced inflammatory bowel disease model; format: in vivo, C57BL/6 mice; settings: 10 mg/kg oral daily, 15th day, 4 hours after FITC-dextran, compared to solvent control
Protocol: In order to investigate mucosal healing effects of the compounds according to an embodiment of the present invention, inflammatory bowel disease was induced in C57BL/6 mice, and a degree of recovery of intestinal epithelial harrier integrity was assessed by administering Compound 6 as follows. On day 0 of the experiment, a 2.0% DSS solution prepared by dissolving 2.0% DSS in sterile distilled water was given for drinking to C57BL/6 mice (11 weeks old, female, 20±2 g) for 7 days. The 2.0% DSS solution was changed at an interval of 2 days. Sterile distilled water was provided for drinking from the 8th day of the experiment. Body weight and severity index were measured at an interval of 2 days from the 0th day of the experiment, so as to confirm the onset of inflammatory bowel disease. […] 4 hours after oral administration, fluorescence was measured in the serum extracted from the heart (fluorometer, excitation 485490 nm, emission […]).

With `O=C(Cc1c[nH]c2ccc(Cl)cc12)Nc1nc2ccc(N3CCOCC3)cc2s1` [Compound 6, 2-(5-chloro-1H-indol-3-yl)-N-(6-morpholinobenzo[d]thiazol-2-yl)acetamide] the “production of Foxp3-expressing regulatory T cells” value ([1]; 2.5 μM and 5 μM, compared to Comparative Example 1) was “significantly increased”, the “production of Foxp3-expressing regulatory T cells” value ([1]; 2.5 μM, compared to Vehicle) was “markedly increased” and the “Serum FITC-dextran” value [2] was “significantly decreased”.

Source: US12187717B2, “Compound and use thereof in treating autoimmune diseases” (PARENCHYMA BIOTECH INC., priority 2022, dated 2025)
